From patent US20120022040A1, “ANTIMICROBIALS” (priority 2008, published 2012)
Converted amounts (≈) assume the structure as drawn.

Experiments:
MRSA 43300 [1] = test: MIC90 determination by serial dilution; type: cell-based, methicillin-resistant Staphylococcus aureus; settings: Staphylococcus aureus, dilution series from the Max Conc.
Description: (§1) Compounds (1), (2), and (3) were tested to determine MIC90 values.
(§2) Rules for determining MIC values: Each extract has a starting concentration which is diluted 7 times for a total of 8 dilutions. The MIC is the lowest dilution without growth. Each serial dilution is repeated three times for three identical dilutions. For reporting the results, the following rules were used. Inconsistent values were thrown out. For instance, the MIC value reported for an extract with MIC readings of 4, 4, and 2 would be four (the 2 is thrown out). If the readings are all different and in series like 2, 4, and 8, the median MIC value of 4 would be reported. If the three values are all different and not in series, an error is reported. Besides the three identical dilutions at the same starting concentration, each extract has dilutions starting at three different concentrations: 64, 4, and 0.25 μg/mL. Each extract therefore has 3 identical dilution series at 3 different starting concentrations—a total of 24 dilutions. The dilutions overlap which can result in a disagreement in MIC values for two different starting dilutions. Since a small amount of error is introduced with each dilution, the MIC readings with the fewest dilutions are selected as the correct MIC values.
(§3) Abbreviations: MRSA=methicillin-resistant Staphylococcus aureus; SA=Staphylococcus aureus; PA=Pseudomonas aeruginosa; Kleb=Klebsiella pneumonia; EC=Escherichia coli; VSE=Vancomycin-sensitive enterococci faecium.

Kleb 4352 [2] = test: IC50 determination (XlFit dose response model 200); type: cell-based, Klebsiella pneumonia; settings: Klebsiella pneumoniae, average of 3 replicates
Description: (§4) Compounds (1), (2), and (3) were tested to determine IC50 values. IC50 was determined using XlFit add-in using dose response model 200. The average of 3 replicates is presented for each compound in Table 2.

MRSA 43300 [3] = test: IC50 determination (XlFit dose response model 200); type: cell-based, methicillin-resistant Staphylococcus aureus; settings: Staphylococcus aureus, average of 3 replicates
Description: as §4

VSE 6569 [4] = test: IC50 determination (XlFit dose response model 200); type: cell-based, Vancomycin-sensitive enterococci faecium; settings: average of 3 replicates
Description: as §4

VSE 49452 [5] = test: IC50 determination (XlFit dose response model 200); type: cell-based, Vancomycin-sensitive enterococci faecium; settings: average of 3 replicates
Description: as §4

PA 27853 [6] = test: MIC90 determination by serial dilution; type: cell-based; settings: Pseudomonas aeruginosa, dilution series from the Max Conc.
Description: as §1, §2, §3

EC 25922 [7] = test: MIC90 determination by serial dilution; type: cell-based; settings: Escherichia coli, dilution series from the Max Conc.
Description: as §1, §2, §3

SA 29213 [8] = test: MIC90 determination by serial dilution; type: cell-based; settings: Staphylococcus aureus, dilution series from the Max Conc.
Description: as §1, §2, §3

Kleb 4352 [9] = test: MIC90 determination by serial dilution; type: cell-based, Klebsiella pneumonia; settings: Klebsiella pneumoniae, dilution series from the Max Conc.
Description: as §1, §2, §3

PA 27853 [10] = test: IC50 determination (XlFit dose response model 200); type: cell-based; settings: Pseudomonas aeruginosa, average of 3 replicates
Description: as §4

EC 25922 [11] = test: IC50 determination (XlFit dose response model 200); type: cell-based; settings: Escherichia coli, average of 3 replicates
Description: as §4

SA 29213 [12] = test: IC50 determination (XlFit dose response model 200); type: cell-based; settings: Staphylococcus aureus, average of 3 replicates
Description: as §4

VSE 6569 [13] = test: MIC90 determination by serial dilution; type: cell-based, Vancomycin-sensitive enterococci faecium; settings: dilution series from the Max Conc.
Description: as §1, §2, §3

VSE 49452 [14] = test: MIC90 determination by serial dilution; type: cell-based, Vancomycin-sensitive enterococci faecium; settings: dilution series from the Max Conc.
Description: as §1, §2, §3

Compound	MIC90 (MRSA 43300 [1]) [µg/mL]	IC50 (Kleb 4352 [2]) [µg/mL]	IC50 (MRSA 43300 [3]) [µg/mL]	IC50 (VSE 6569 [4]) [µg/mL]	IC50 (VSE 49452 [5]) [µg/mL]	MIC90 (PA 27853 [6]) [µg/mL]	MIC90 (EC 25922 [7]) [µg/mL]	MIC90 (SA 29213 [8]) [µg/mL]	MIC90 (Kleb 4352 [9]) [µg/mL]	IC50 (PA 27853 [10]) [µg/mL]	IC50 (EC 25922 [11]) [µg/mL]	IC50 (SA 29213 [12]) [µg/mL]	MIC90 (VSE 6569 [13]) [µg/mL]	MIC90 (VSE 49452 [14]) [µg/mL]
C[C@@H](O)[C@H]1C(=O)N2C(C(=O)O)=C(S[C@@H]3CN[C@H](C(=O)N(C)C)C3)[C@H](C)[C@H]12 [Meropenem, meropenem, reference compound]	4 (≈ 10.4 µM)	0.121 (≈ 0.316 µM)	0.037 (≈ 0.0965 µM)	11.8 (≈ 30.8 µM)	6.74 (≈ 17.6 µM)	1 (≈ 2.61 µM)	0.06 (≈ 0.156 µM)	0.25 (≈ 0.652 µM)	0.12 (≈ 0.313 µM)	0.945 (≈ 2.46 µM)	0.122 (≈ 0.318 µM)	0.126 (≈ 0.329 µM)	32 (≈ 83.4 µM)	16 (≈ 41.7 µM)
NCC[C@H](O)C(=O)N[C@@H]1C[C@H](N)[C@@H](O[C@H]2O[C@H](CN)[C@@H](O)[C@H](O)[C@H]2O)[C@H](O)[C@H]1O[C@H]1O[C@H](CO)[C@@H](O)[C@H](N)[C@H]1O [Amikacin]						1 (≈ 1.71 µM)				0.274 (≈ 0.468 µM)				
CC[C@H]1OC(=O)[C@H](C)[C@@H](O[C@H]2C[C@@](C)(OC)[C@@H](O)[C@H](C)O2)[C@H](C)[C@@H](O[C@@H]2O[C@H](C)C[C@H](N(C)C)[C@H]2O)[C@](C)(O)C[C@@H](C)C(=O)[C@H](C)[C@@H](O)[C@]1(C)O [Erythromycin]	> 64	2.21 (≈ 3.01 µM)	> 64	2.75 (≈ 3.75 µM)	< 2	> 64	64 (≈ 87.2 µM)	≤ 2	8 (≈ 10.9 µM)	> 64	20.7 (≈ 28.2 µM)	< 2	8 (≈ 10.9 µM)	≤ 2
O=C(N[C@H](CO)[C@H](O)c1ccc([N+](=O)[O-])cc1)C(Cl)Cl [Chloramphenicol]	4 (≈ 12.4 µM)	> 64	< 2	< 2	< 2	> 64	8 (≈ 24.8 µM)	8 (≈ 24.8 µM)	≤ 2	> 64	< 2	> 64	≤ 2	4 (≈ 12.4 µM)
O=C1CN(/N=C/c2ccc([N+](=O)[O-])o2)C(=O)N1 [Nitrofurantoin]	8 (≈ 33.6 µM)	3.68 (≈ 15.4 µM)	1.83 (≈ 7.67 µM)	2.87 (≈ 12.1 µM)	3.57 (≈ 15 µM)	> 32	8 (≈ 33.6 µM)	16 (≈ 67.2 µM)	16 (≈ 67.2 µM)	> 32	3.27 (≈ 13.7 µM)	7.71 (≈ 32.4 µM)	32 (≈ 134 µM)	8 (≈ 33.6 µM)
CCC(C)(C)C(=O)C(=O)N1CCCC[C@H]1C(=O)O[C@H](CCc1ccc(OC)c(OC)c1)c1cccc(OCCNC(=O)c2cccc(NC(=O)[C@@H]3C[C@H](SC4=C(C(=O)O)N5C(=O)[C@H]([C@@H](C)O)[C@H]5[C@H]4C)CN3)c2)c1 [(1), (4R,5S,6S)-3-((3S,5S)-5-(3-(2-(3-((R)-3-(3,4-dimethoxyphenyl)-1-((S)-1-(3,3-dimethyl-2-oxopentanoyl)piperidine-2-carbonyloxy)propyl)phenoxy)ethylcarbamoyl)phenylcarbamoyl)pyrrolidin-3-ylthio)-6-((R)-1-hydroxyethyl)-4-methyl-7-oxo-1-azabicyclo[3.2.0]hept-2-ene-2-carboxylic acid]	8 (≈ 7.8 µM)	> 64	0.265 (≈ 0.258 µM)	15.2 (≈ 14.8 µM)	6.91 (≈ 6.73 µM)	> 64	> 64	2 (≈ 1.95 µM)	> 64	> 64	> 64	0.942 (≈ 0.918 µM)	64 (≈ 62.4 µM)	16 (≈ 15.6 µM)
CCC(C)(C)C(=O)C(=O)N1CCCC[C@H]1C(=O)O[C@H](CCc1ccc(OC)c(OC)c1)c1cccc(OCC(=O)NCCCCCN2C[C@@H](SC3=C(C(=O)O)N4C(=O)[C@H]([C@@H](C)O)[C@H]4[C@H]3C)C[C@H]2C(=O)N(C)C)c1 [(2), (4R,5S,6S)-3-((3S,5S)-1-(5-(2-(3-((R)-3-(3,4-dimethoxyphenyl)-1-((S)-1-(3,3-dimethyl-2-oxopentanoyl)piperidine-2-carbonyloxy)propyl)phenoxy)acetamido)pentyl)-5-(dimethylcarbamoyl)pyrrolidin-3-ylthio)-6-((R)-1-hydroxyethyl)-4-methyl-7-oxo-1-azabicyclo[3.2.0]hept-2-ene-2-carboxylic acid]	8 (≈ 7.73 µM)	> 64	0.17 (≈ 0.164 µM)	7.23 (≈ 6.99 µM)	1.6 (≈ 1.55 µM)	> 64	> 64	2 (≈ 1.93 µM)	> 64	> 64	> 64	0.871 (≈ 0.842 µM)	32 (≈ 30.9 µM)	16 (≈ 15.5 µM)
C[C@H]1c2cccc(O)c2C(=O)C2=C(O)[C@]3(O)C(=O)C(C(N)=O)=C(O)[C@@H](N(C)C)[C@@H]3[C@@H](O)[C@@H]21 [Doxycycline]						32 (≈ 72 µM)				6.3 (≈ 14.2 µM)				
